Measured values published in US20260062422A1 (Halda Therapeutics OpCo, Inc., priority 2022, published 2026).

Columns and labels:
[1] = Cellular growth inhibition, T-Rex 293 SC cells with doxycycline (progesterone receptor isoform B induced), Example 47; format: cell-based; settings: progesterone receptor isoform B induced with 10 ng/mL doxycycline, 72 hours, CellTiter-Glo 2.0, Table 14 (Example 47)
Method: (§1) The following types of cells were prepared for this experiment: (i) a T-Rex 293 cell line having increased expression of progesterone receptor isoform B protein due to exposure to doxycycline and (ii) a T-Rex 293 cell line lacking increased expression of progesterone receptor isoform B protein. Ability of the test compounds to inhibit proliferation of the foregoing cell types was evaluated according to the procedures set forth below.
(§2) The doxycycline-inducible progesterone receptor isoform B protein expressing cell line was established using the following protocol: T-Rex 293 cells were purchased from Invitrogen (Cat #R71007) and transfected using Lipofectamine 2000 with the wild-type progesterone receptor B protein sequence cloned into the pcDNA4/TO vector. Transfected cells were selected using 400 μg/mL Zeocin (Invitrogen Cat #R25001). Following selection, single clones were raised and maintained in Dulbecco's Modified Eagle Medium (DMEM) supplemented with 10% w/w Tetracycline-free fetal bovine serum (FBS) and 250 μg/mL Zeocin. Clones were analyzed for expression of progesterone receptor isoform B protein in the presence and absence of 10 ng/mL doxycycline (Sigma Cat #D9891), and a single doxycycline-inducible clone (hereinafter “SC”) was selected for use in downstream assays.
(§3) The SC cells were seeded on poly-D-lysine coated, black clear-bottom 384-well plates at 2500/well, in 25 μL Phenol Red Free Dulbecco's Modified Eagle Medium (DMEM) supplemented with 10% w/w charcoal-dextran treated fetal bovine serum (FBS) and 1% w/w pen-strep, with or without 10 ng/mL doxycycline. Pen-Strep is a commercially available mixture of penicillin G and streptomycin, which is used in mammalian cell culture media to prevent bacterial contamination. Phenol Red Free Dulbecco's Modified Eagle Medium (DMEM) supplemented with 10% w/w charcoal-dextran treated fetal bovine serum (FBS) and 1% w/w pen-strep, with or without 10 ng/mL doxycycline is herein referred to as Treatment Medium. Following seeding of cells in the plates, the plates were spun at 300×g for 30 seconds, then equilibrated to room temperature for 30 minutes, and then deposited in a humidified tissue culture incubator maintained at 37° C. with 5% CO2.
(§4) At 24 hours after seeding of the cells, dilutions of test compound were prepared in DMSO and dissolved in Treatment Medium, to achieve a final DMSO concentration of 0.5% w/w, thereby providing the Test Compound Solution. A 25 μL aliquot of the Test Compound Solution was added to cells in the well plates. An equal volume of a solution containing DMSO and Treatment Medium was used as a negative control. Following treatment of cells with Test Compound Solution or said equal volume of a solution containing DMSO and Treatment Medium, the plates were spun at 300×g for 30 seconds, and then left in an incubator for 72 hours.
(§5) At the end of the treatment duration, cell viability was quantified with CellTiter-Glo 2.0 reagent (Promega Cat #G9243). For this purpose, plates were equilibrated to room temperature for 30 minutes, and then 25 μL of CellTiter-Glo 2.0 reagent was added to cells in the plate wells. Plates were then agitated on a shaker for two minutes at 500 rpm and subsequently incubated at room temperature for 10 minutes. Following incubation, the plates were spun at 3000×g for 30 seconds, then sealed with an optical adhesive cover, and luminescence readings were measured with an EnVision Plate Reader (Perkin Elmer).
(§6) Data was normalized using zero luminescence for baseline. A four-parameter non-linear regression curve fit was applied to dose-response data in GraphPad Prism data analysis software to determine the half-maximal growth inhibitory concentration (GI50) for each test compound.

[2] = test system: T-Rex 293 cell line SC cells lacking increased expression of progesterone receptor isoform B protein; experiment: Cellular growth inhibition, T-Rex 293 SC cells without doxycycline, Example 47; format: cell-based; settings: T-Rex 293 SC cells not exposed to doxycycline, 72 hours, CellTiter-Glo 2.0; Table 15 (Example 47)
Method: as §1, §2, §3, §4, §5, §6

SMILES: Cc1sc2c(c1C)C(c1ccc(Cl)cc1)=N[C@@H](CC(=O)NCCOCCOCCOCCOCCN(C)c1ncc(C(=O)N[C@H]3C(C)(C)[C@H](Oc4ccc(C#N)c(Cl)c4)C3(C)C)cn1)c1nnc(C)n1-2 [Compound I-3, N-((1r,3r)-3-(3-chloro-4-cyanophenoxy)-2,2,4,4-tetramethylcyclobutyl)-2-((1-((S)-4-(4-chlorophenyl)-2,3,9-trimethyl-6H-thieno[3,2-f][1,2,4]triazolo[4,3-a][1,4]diazepin-6-yl)-2-oxo-6,9,12,15-tetraoxa-3-azaheptadecan-17-yl)(methyl)amino)pyrimidine-5-carboxamide]
- GI50 [1]: < 0.5 µM
- GI50 [2]: 1.5 to 3 µM

SMILES: Cc1sc2c(c1C)C(c1ccc(Cl)cc1)=N[C@@H](CC(=O)NCCOCCOCCOCCOCCOCCOCCN(C)c1ncc(C(=O)N[C@H]3C(C)(C)[C@H](Oc4ccc(C#N)c(Cl)c4)C3(C)C)cn1)c1nnc(C)n1-2 [Compound I-4]
- GI50 [1]: < 0.5 µM
- GI50 [2]: 1.5 to 3 µM

SMILES: Cc1sc2c(c1C)C(c1ccc(Cl)cc1)=N[C@@H](CC(=O)NCCOC1CCN(c3ncc(C(=O)N[C@H]4C(C)(C)[C@H](Oc5ccc(C#N)c(Cl)c5)C4(C)C)cn3)CC1)c1nnc(C)n1-2 [Compound I-6]
- GI50 [1]: < 0.5 µM
- GI50 [2]: < 0.5 µM

SMILES: Cc1sc2c(c1C)C(c1ccc(Cl)cc1)=N[C@@H](CC(=O)NCCOCCOCCOCCOCCOC1CCN(c3ncc(C(=O)N[C@H]4C(C)(C)[C@H](Oc5ccc(C#N)c(Cl)c5)C4(C)C)cn3)CC1)c1nnc(C)n1-2 [Compound I-8]
- GI50 [1]: < 0.5 µM
- GI50 [2]: 0.5 to 1.5 µM

SMILES: Cc1sc2c(c1C)C(c1ccc(Cl)cc1)=N[C@@H](CC(=O)NCCOCCOCCOCCOC1CCN(c3ncc(C(=O)N[C@H]4C(C)(C)[C@H](Oc5ccc(C#N)c(Cl)c5)C4(C)C)cn3)CC1)c1nnc(C)n1-2 [Compound I-11]
- GI50 [1]: < 0.5 µM
- GI50 [2]: < 0.5 µM

SMILES: Cc1sc2c(c1C)C(c1ccc(Cl)cc1)=N[C@H](CC(=O)NCCOCCOCCOCCOC1CCN(c3ncc(C(=O)N[C@H]4C(C)(C)[C@H](Oc5ccc(C#N)c(Cl)c5)C4(C)C)cn3)CC1)c1nnc(C)n1-2 [Compound I-13]
- GI50 [1]: < 0.5 µM
- GI50 [2]: 1.5 to 3 µM

SMILES: Cc1sc2c(c1C)C(c1ccc(Cl)cc1)=N[C@H](CC(=O)NCCOCCOCCOCCOCCOC1CCN(c3ncc(C(=O)N[C@H]4C(C)(C)[C@H](Oc5ccc(C#N)c(Cl)c5)C4(C)C)cn3)CC1)c1nnc(C)n1-2 [Compound I-14]
- GI50 [1]: < 0.5 µM
- GI50 [2]: 1.5 to 3 µM

SMILES: Cc1sc2c(c1C)C(c1ccc(Cl)cc1)=N[C@@H](CC(=O)NCCOCCOCCOCC1CCN(c3ncc(C(=O)N[C@H]4C(C)(C)[C@H](Oc5ccc(C#N)c(Cl)c5)C4(C)C)cn3)CC1)c1nnc(C)n1-2 [Compound I-17]
- GI50 [1]: 0.5 to 1.5 µM
- GI50 [2]: > 3 µM

SMILES: Cc1sc2c(c1C)C(c1ccc(Cl)cc1)=N[C@@H](CC(=O)NCCCCCOC1CCN(c3ncc(C(=O)N[C@H]4C(C)(C)[C@H](Oc5ccc(C#N)c(Cl)c5)C4(C)C)cn3)CC1)c1nnc(C)n1-2 [Compound I-22, N-((1r,3r)-3-(3-chloro-4-cyanophenoxy)-2,2,4,4-tetramethylcyclobutyl)-2-(4-((5-(2-((S)-4-(4-chlorophenyl)-2,3,9-trimethyl-6H-thieno[3,2-A][1,2,4]triazolo[4,3-a][1,4]diazepin-6-yl)acetamido)pentyl)oxy)piperidin-1-yl)pyrimidine-5-carboxamide]
- GI50 [2]: > 3 µM

SMILES: CCNC(=O)C[C@@H]1N=C(c2cccc(OCCOCCOCCOC3CCN(c4ncc(C(=O)N[C@H]5C(C)(C)[C@H](Oc6ccc(C#N)c(Cl)c6)C5(C)C)cn4)CC3)c2)c2c(sc(C)c2C)-n2c(C)nnc21 [Compound I-48, N-((1r,3r)-3-(3-chloro-4-cyanophenoxy)-2,2,4,4-tetramethylcyclobutyl)-2-(4-(2-(2-(2-(3-((S)-6-(2-(ethylamino)-2-oxoethyl)-2,3,9-trimethyl-6H-thieno[3,2-f][1,2,4]triazolo[4,3-a][1,4]diazepin-4-yl)phenoxy)ethoxy)ethoxy)ethoxy)piperidin-1-yl)pyrimidine-5-carboxamide]
- GI50 [2]: > 3 µM
